# Measured values from patent publication US20050288227A1, “Use of thioredoxin measurements for diagnostics and treatments” (priority 2002, published 2005).
# Where two headings read alike, the source gives them in different places.
# What was measured:
# [1] = tested on: non-small cell lung cancer; conditions: Phase II, cited from earlier work
# HDAC = conditions: literature statement, cited from earlier work
# [2] = tested on: metastatic renal cell carcinoma; conditions: Phase II; cited from earlier work
# [3] = phase I; cited from earlier work
# [4] = tested on: WI38 (human lung fibroblast); test: Cell growth (cell number, trypan blue / Guava); type: cell-based; conditions: WI38 cells, FIG. 2B
# Description: (§1) HeLa (human cervical carcinoma), WI38 (human lung fibroblast), WI38-VA13 (SV-40 transformed human lung fibroblast), MCF-7 (human breast adenocarcinoma), T-24 human bladder transitional cell carcinoma), and LNCAP (human prostate adenocarcinoma) were obtained from the American type culture collection and cultured in accordance with the instructions. ARP-1 (human multiple myeloma) was generously provided by Dr. J. Hardoc (Arkansas Cancer Research Center, Little Rock) and cultured as indicated by the source.
# (§2) Cells were harvested by trypsinization. Cell number and viability were measured by trypan blue dye exclusion and by Guava PCA-96 via count flex reagent according to the manufacturer's instruction (Guava).
# [5] = tested on: WI38-VA13 (SV-40 transformed human lung fibroblast); test: Cell growth (cell number, trypan blue / Guava); type: cell-based; conditions: VA13 cells, FIG. 2A
# Description: as §1, §2
# TRX [6] = test: Western blot of TRX protein in VA13; type: cell-based, human; conditions: VA13 cultured with 5 μmol/l SAHA, FIG. 4B
# Procedure: (§3) Typically, whole cell lysates were prepared using a buffer (50 mM Tris-HCL pH 8, 300 mM NaCl, 5 mM EDTA, 0.5% NP-40, inhibitor pellet from Roche). Next, 10-25 μg of cell extract were subjected to standard SDS-poly acrylamide gel electrophoresis using 10%, 15%, and 18% criterion gels (Bio-Rad). After transferring to PVDF membrane (Amersham Biosciences), the membranes were blocked with 5% BSA PBS-Tween (0.1%). The membranes were then incubated with specific primary antibody and horseradish peroxidase-labeled secondary antibody. Immunoprecipitation was based on the protocol of Santa Cruz Biotechnology. Briefly, 100-500 μg of total cellular protein were applied and incubated with protein agarose (Ausubel, F. M., et al. Current Protocols in Molecular Biology. 10.16 John Wiley & Sons. 2001).
# (§4) TBP-2 antiserum was generated in rabbits (Pocono Farms) using following sequence (peptide) CYM DVI PED HRL ESP (SEQ ID NO:7). Anti-TRX was prepared in the laboratory of Dr. Arne Holmgren (Karolinska institute) as a goat polyclonal antibody. Anti-tubulin was purchased from Oncogene.
# (§5) TBP-2 has been identified as a protein that associates with the active (reduced) form of TRX, a dithiol-reducing redox regulatory protein (Nishiyama, A., et al., 1999, J. Biol. Chem. 274, 21645-21650). Binding of TBP-2 to TRX both inhibits the thiol-reducing activity and reduces the level of expression of TRX. […]
# TRX [7] = test: Northern blot of TRX mRNA in WI38; type: cell-based, human; conditions: WI38 cultured with 5 μmol/l SAHA, FIG. 4A
# Procedure: Cells were cultured and recovered by centrifugation and RNA was prepared as described (Richon, V. M., et al., 1996, Proc. Natl. Acad. Sci. USA. 93:5705-5708). Total RNA (10 μg) was analyzed by northern blotting using a ^32P-labeled 1.1-kb TBP-2 coding region cDNA probe or a 500 bp cDNA probe for human TRX (Butler et al., 2002, Proc. Natl. Acad. Sci. USA 99:11700-11705). Loading was determined using a ^32P labeled 50-mer 18s rRNA oligonucleotide.
# tumor growth = conditions: animals; cited from earlier work
# [8] = tested on: solid and hematological tumors; conditions: cited from earlier work
# [9] = tested on: WI38 (human lung fibroblast); test: SAHA-induced apoptosis / viability; type: cell-based; conditions: normal fibroblast WI38 cells, FIGS. 2-3
# Description: as §1, §2
# [10] = tested on: WI38-VA13 (SV-40 transformed human lung fibroblast); test: SAHA-induced apoptosis / viability; type: cell-based
# Description: as §1, §2
# [11] = tested on: acetylated histones in PMN cells; conditions: following a single oral dose; cited from earlier work
# TRX [12] = test: Western blot of TRX protein in WI38; type: cell-based, human; conditions: WI38 cultured with 5 μmol/l SAHA, FIG. 4B
# Procedure: as §3, §4, §5
# [13] = oral formulation of PB; cited from earlier work
# [14] = tested on: acute myelogenous leukemia; conditions: a patient with acute myelogenous leukemia; cited from earlier work
compound,measurement,setting,value
CC(=O)Nc1ccc(C(=O)Nc2ccccc2N)cc1 [CI-994],patients having a partial response to therapy,[1]; 32 patients,7%
same,patients having stable disease for over 8 weeks,[1],28%
same,HDAC inhibitory potency (level of activity),HDAC,less potent than the corresponding hydroxamates and cyclic tetrapeptides
same,patients with stable disease for greater than 8 weeks,[2],58%
O=C(/C=C/c1ccc(CN(CCO)CCc2c[nH]c3ccccc23)cc1)NO [LAQ824],HDAC inhibitory potency (level of activity),HDAC,nanomolar inhibitor
"Nc1ccccc1NC(=O)c1ccc(CNC(=O)OCc2cccnc2)cc1 [MS-275, N-(2-aminophenyl)-4-[N-(pyridin-3-yl-methoxycarbonyl)aminomethyl] benzamide]",half-life,[3],longer than expected
same,HDAC inhibitory potency (level of activity),HDAC,less potent than the corresponding hydroxamates and cyclic tetrapeptides
"O=C(CCCCCCC(=O)Nc1ccccc1)NO [SAHA, suberoylanilide hydroxamic acid]",SAHA dose that induces growth arrest,[4],≥ 2.5 µM
same,SAHA dose that induces growth arrest,[5],≥ 2.5 µM
same,TRX protein levels,TRX [6],quickly decrease to undetectable levels
same,TRX mRNA expression,TRX [7],increased significantly
same,toxicity to the animal,tumor growth,no toxicity
same,drug related deaths,"[8]; oral SAHA, patients",no drug related deaths
same,longest duration of therapy (durable responses),"[8]; oral SAHA, patients",over 18 months
same,oral bioavailability,[8]; oral formulation of SAHA,good oral bioavailibity
same,apoptosis,[9],little or no apoptosis
same,growth arrest and apoptosis,"[10]; transformed VA13, FIGS. 2-3",induced growth arrest and apoptosis
same,SAHA concentration sufficient to induce significant apoptosis,"[10]; transformed cells, after 24-48 hours of SAHA treatment, FIG. 3A",1.25 to 2.5 µmol/L
same,persistence of accumulation of acetylated histones in PMN cells,[11],up to 10 hrs
same,TRX protein levels,TRX [12],increased significantly
C/C=C1\NC(=O)[C@H]2CSSCC/C=C/[C@H](CC(=O)N[C@H](C(C)C)C(=O)N2)OC(=O)[C@H](C(C)C)NC1=O [depsipeptide],HDAC inhibitory potency (level of activity),HDAC,active at nanomolar levels
same,HDAC inhibitory potency (level of activity),HDAC; listed as Depsipeptide,inhibits HDACs at nanomolar concentrations
"O=C(O)CCCc1ccccc1 [phenyl butyrate, Phenyl Butyrate]",biologic active plasma concentrations reached,[13],0.5 mM
same,oral bioavailability,[13],good bioavailability
same,HDAC inhibitory potency (level of activity),HDAC,millimolar levels of activity
"CCCC(CCC)C(=O)O [valproic acid, Valproic Acid]",clinical response,[14],transient partial remission
same,HDAC inhibitory potency (level of activity),HDAC,millimolar levels of activity
